Values of other authors, collected in patent US20180161366A1, “METHODS OF OBTAINING MONONUCLEAR BLOOD CELLS AND USES THEREOF” (Biokine Therapeutics Ltd., priority 2015, published 2018).

Details: from DiPersio Blood 2008; cited from earlier work

Q: What does the source list for c1cc(CN2CCCNCCNCCCNCC2)ccc1CN1CCCNCCNCCCNCC1 [AMD3100]?
A: B cells (CD19), Median (range): 1.0 (0.2-2.4) × 10^8/Kg; Cytotoxic T cells (CD3+CD8+), Median (range): 1.3 (0.4-3.4) × 10^8/Kg; HSPC (CD34+), Median (range): 2.9 (1.2-6.3) × 10^6/Kg; NK cells (CD3−CD56+), Median (range): 0.3 (0.1-1.0) × 10^8/Kg; T cells (CD3+), Median (range): 4.6 (1.5-7.8) × 10^8/Kg; T helper cells (CD3+CD4+), Median (range): 3.2 (1-5.7) × 10^8/Kg

B1: G-CSF: mobilization agent (protein, UniProt P09919 31-207, looked up)
Granulocyte …: TPLGPASSLPQSFLLKCLEQVRKIQGDGAALQEKLVSECATYKLCHPEELVLLGHSLGIPWAPLSSCPSQALQLAGCLSQLHSGLFLYQGLLQALEGISPELGPTLDTLQLDVADFATTIWQQMEELGMAPALQPTQGAMPAFASAFQRRAGGVLVASHLQSFLEVSYRVLRHLAQP
Q: With B1 as the molecule, how does the “Cytotoxic T cells (CD3+CD8+), Median (range)” value read?
A: 0.4 (0.4-3.4) × 10^8/Kg

Q: And the “HSPC (CD34+), Median (range)” value?
A: 4.2 (2.5-18) × 10^6/Kg

Q: What about the “NK cells (CD3−CD56+), Median (range)” value of the same molecule?
A: 0.2 (0.2-0.5) × 10^8/Kg

Q: What about the “T cells (CD3+), Median (range)” value of the same molecule?
A: 1.3 (1.2-6.8) × 10^8/Kg

Q: And the “T helper cells (CD3+CD4+), Median (range)” value?
A: 1.1 (0.7-3.2) × 10^8/Kg
